System: mdx mouse
Assay: mdx mouse model for Duchenne Muscular Dystrophy, longterm treatment
Format: in vivo
Details: mdx mice, 4 weeks; for adverse effects upon longterm treatment: 20 mg/kg every 2nd day
Method: The mdx mouse is a well established animal model for Duchenne Muscular Dystrophy (Bulfield G., Siller W. G., Wight P. A., Moore K. J., X chromosome-linked muscular dystrophy (mdx) in the mouse, Proc. Natl. Acad. Sci. USA., 1984, 81(4), 1189-1192). Selected compounds were tested in longterm treatments of mdx mice, according to the procedures described below.
Mouse strains: C57BL/10scsn and C57BL/10scsn mdx mouse strains were purchased at The Jackson Laboratory (ME, USA) and bred inhouse. Mouse males were sacrificed at the age of 3 or 7 weeks by CO2 asphyxiation.
Treatment: Compounds were dissolved in 50% PEG, 50% saline solution and applied by i.p. injection.
Histology: Tibialis anterior (TA), quadriceps (Quad), and diaphragm (Dia) muscles were collected and mounted on cork supports using gum tragacanth (Sigma-Aldrich, Germany). The samples were snap-frozen in melting isopentane and stored at −80° C. 12 μm thick cryosections of the mid-belly region of muscles were prepared. For staining, sections were air dried and fixed with 4% PFA in PBS for 5 minutes, washed 3 times with PBS and incubated over night at 4° C. in PBS containing 2 μg/ml Alexa Fluor™ 488 conjugated wheat-germ agglutinin (WGA-Alexa, Molecular Probes, Eugen, Oreg., USA) to stain membrane-bound and extracellular epitopes and 1 μg/ml 4′,6-diamidino-2-phenylindole (DAPI; Molecular Probes) to stain nuclei.
Image acquisition and analysis: Fluorescence microscopy images of both labels were acquired using a digital camera (ColorView II, Soft Imaging System, Müinster, Germany) coupled to a fluorescence microscope (Vanox S, Olympus, Tokyo, Japan). Combination of these two stainings to a composite image, assembling of several images to a complete image of the entire muscle cross-section and further semi-automated analysis was performed using the image analysis program AnalySIS (Soft Imaging System). Image analysis of 1200-2900 muscle fibers in each section was performed in three steps: 1) determination of the muscle fiber boundaries, 2) determination of the muscle fiber size, and 3) determination of the percentage of muscle fibers containing centralized nuclei. Six different geometrical parameters were tested for the determination of the muscle fiber size: (a) the “minimal feret” (the minimum distance of parallel tangents at opposing borders of the muscle fiber), (b) the “area”, (c) the “minimal inner diameter” (the minimum diameter through the center of the muscle fiber), (d) the “minimal diameter” (the minimum diameter of a muscle fiber for angles in the range 0° through 179° with step width 1°, (e) the “minimal outer diameter” (the minimum diameter through the muscle fiber from outer border to outer border), and (f) the “perimeter”. The variance coefficient of the muscle fiber size is defined as follows: variance coefficient=(standard deviation of the muscle fiber size/mean of the muscle fiber size of the section)*[…]. For statistical analysis of different variance coefficient values Mann-Whitney U test was used.
Selected Examples of the present invention were active in the mdx mouse model at 20 mg/kg every 2nd day, using 3 week old mice and a treatment period of 4 weeks (N=5-10).

[1] = 20 mg/kg every 2nd day i.p., diaphragm, vs vehicle-treated mdx mice
[2] = 20 mg/kg every 2nd day i.p., tibialis anterior, vs vehicle-treated mdx mice

| Structure (SMILES) | decrease in the variance coefficient of the muscle fiber size, Dia [1] | decrease in the variance coefficient of the muscle fiber size, TA [2] | reduction of the percentage of centralized nuclei, TA [2] | adverse effects upon longterm treatment | reduction of the percentage of centralized nuclei, Dia [1] | decrease in the variance coefficient of the muscle fiber size, Quad (20 mg/kg every 2nd day i.p., quadriceps, vs vehicle-treated mdx mice) |
| --- | --- | --- | --- | --- | --- | --- |
| CCNC(=O)C(=O)[C@H](Cc1ccc(Cl)cc1)NC(=O)[C@@H](NC(=O)[C@H](Cc1ccccc1)NC(=O)CCCCc1cccs1)C(C)C [Example 1] | 26% | 26% | 17% | No prominent adverse effects |  |  |
| CCNC(=O)C(=O)C(Cc1ccc(OC)cc1)NC(=O)C(NC(=O)C(CCc1ccccc1)NC(=O)CCc1cccs1)C(C)C (stereo not drawn) [Example 520] | 40% |  | 13% | No prominent adverse effects | 26% | 31% |
